How the values were obtained:
S. mansoni TGR = target: T1, S. mansoni TGR (Schistosoma mansoni, UniProt Q962Y6); test: biochemical; conditions: 40 nM enzyme, 3 mM DTNB; after 10 min preincubation; read-out: IC50 S. mansoni TGR, substrate DTNB (original data)
T1 construct: made in house; host or cells: E. coli
T1 sequence (Q962Y6 1-598): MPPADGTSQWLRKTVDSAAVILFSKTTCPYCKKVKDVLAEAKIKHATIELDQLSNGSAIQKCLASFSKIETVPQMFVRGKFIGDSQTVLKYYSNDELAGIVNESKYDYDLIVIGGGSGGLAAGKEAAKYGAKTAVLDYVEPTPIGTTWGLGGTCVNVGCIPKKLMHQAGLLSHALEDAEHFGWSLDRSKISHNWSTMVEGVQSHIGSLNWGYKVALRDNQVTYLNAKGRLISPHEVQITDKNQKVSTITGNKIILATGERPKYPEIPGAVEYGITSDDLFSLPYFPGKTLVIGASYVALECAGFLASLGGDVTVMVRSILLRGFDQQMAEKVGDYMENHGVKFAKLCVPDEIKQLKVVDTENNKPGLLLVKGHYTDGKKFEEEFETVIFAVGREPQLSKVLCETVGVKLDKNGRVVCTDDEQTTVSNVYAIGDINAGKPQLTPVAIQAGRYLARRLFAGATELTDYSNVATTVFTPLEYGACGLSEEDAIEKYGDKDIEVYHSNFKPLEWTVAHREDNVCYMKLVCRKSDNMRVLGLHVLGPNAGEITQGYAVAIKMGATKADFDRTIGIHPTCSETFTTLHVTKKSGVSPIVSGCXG
Method: (§1) Enzymes were prepared in E. coli as described. Assays were performed at 25 °C in 0.1 M potassium phosphate (pH 7.4), 10 mM EDTA using 100 μM NADPH and 3 mM dithiobis(2-nitrobenzoic acid) (DTNB). […] The increase in A412 during the first 3 min was recorded upon DTNB addition. The reaction was done in triplicate.

[1] = system: adult ex vivo S. mansoni worms; test: Adult ex vivo Schistosoma worm killing assay; assay type: cell-based
Method: Adult ex vivo Schistosoma assay: Mice (Swiss-Webster) were infected with S. mansoni by percutaneous exposure for 1 h to cercariae (NMRI strain) obtained from infected Biomphalaria glabrata snails. This study was approved by the Institutional Animal Care and Use Committee of Rush University Medical Center (17-053; Department of Health and Human Services animal welfare assurance number A-3120-01). Adult worms were isolated from infected mice as described and cultured in RPMI medium +10% fetal calf serum (FCS), 10 mM glutamine, 100 IU/mL penicillin and 100 µg/mL streptomycin for 24 h before compound addition. Compounds were dissolved in DMSO and added at the indicated concentrations. The culture media was replaced every day and fresh compounds added. Control worms were treated with DMSO alone. Worms were cultured for 5 days. […] Assays were done in triplicate with about 10 worms in each well. This study was approved by the Institutional Animal Care and Use Committee of Rush University Medical Center (17-053; Department of Health and Human Services animal welfare assurance number A-3120-01).

B. pahangi TrxR = B. pahangi TrxR enzyme assay, DTNB reduction (original data); assay type: biochemical, Brugia pahangi; conditions: 100 nM enzyme, 3 mM DTNB; after 10 min preincubation; read-out: IC50 B. pahangi TrxR, substrate DTNB (original data)
Method: as §1

O. ochengi microfilariae = O. ochengi microfilariae motility assay; assay type: cell-based, Onchocerca ochengi; conditions: 10 μM
Method: O. ochengi microfilariae assays: were collected from the hides of infected cattle and washed prior to adding 10–15 microfilariae to 96-well culture plates containing confluent monkey kidney epithelial cells in 100 μL of media. Microfilariae were run in duplicate and plates were maintained at 37 °C in a 5% CO2 incubator. Microfilariae viability was visually scored using percent reduction of motility using the same scoring criteria used for adult males. Scores were recorded every 24 h after addition of drugs for 5 days using an inverted microscope.

[2] = system: Leishmania donovani LV9 axenic amastigotes; test: L. donovani LV9 axenic amastigotes (resazurin); assay type: cell-based; conditions: read-out: Leishmania donovani LV9 Axenic Amastigotes IC50 (µM) ± SD
Method: In vitro anti-leishmanial evaluation was perfomed on both axenic and intramacrophage L. donovani amastigotes as previously described. […] Briefly, compounds were distributed in 96-well plates using 2-fold dilutions in 100 µL PYG medium. A. castellanii trophozoites were added to each well at 5 × 10^4 amoeba/mL in 200 µL final volume. L. donovani axenic amastigotes were added to each well at 10^6 parasites/mL in 200 µL final volume. After 72 h incubation at 27 °C, 20 µL of 1 mM resazurin was added to each well and further incubated at 27 °C for 8 h for A. castellanii and for 24 h for L. donovani axenic amastigotes. In living cells, resazurin is reduced in resorufin. This conversion is monitored by measuring the absorbance at specific wavelengths of resorufin (570 nm) and resazurin (600 nm) using a microplate reader (Labsystems Multiskan MS, McLean, VA, USA). In this assay, the activity was expressed in IC50. Miltefosine and pentamidine were used as reference drugs. All experiments were performed in three independent experiments.

[3] = system: T. b. brucei Squib-427 strain; test: Anti-trypanosomal activity, T. b. brucei trypomastigotes (resazurin); assay type: cell-based, Trypanosoma brucei brucei; conditions: 72 h
Method: Anti-trypanosomal activity: T. b. brucei Squib-427 strain (suramin-sensitive) and T. b. gambiense (ITMAP/1893) were cultured at 37 °C and 5% CO2 in HMI-9 medium supplemented with 10% FCS [90]. About 10^4 trypomastigotes/well were added to each well and parasite growth was assessed after 72 h at 37 °C by adding resazurin and reading at ex 550 nm, em 590 nm. Suramin was included as reference drug for T. b. brucei and pentamidine for T. b. gambiense.

T. cruzi Tulahuen CL2 = test: Anti-Chagas activity, T. cruzi on MRC-5 cells; assay type: cell-based; conditions: amastigotes, MRC-5 host cells, 7 days; read-out: Trypanosoma cruzi IC50 (µM) ± SD
Method: Anti-Chagas activity: T. cruzi Tulahuen CL2 (benznidazole-sensitive, LacZ-reporter strain) was maintained on MRC-5 cells in minimal essential medium (MEM) supplemented with […], 16.5 mM sodium hydrogen carbonate and 5% FCS. In the assay, 4 × 10^3 MRC-5 cells and 4 × 10^4 parasites were added to each well. After incubation at 37 °C for 7 days, parasite growth was assessed by adding the substrate chlorophenol red -D-galactopyranoside. The color reaction was read at 540 nm after 4 h and absorbance values were expressed as a percentage of the blank controls. Benznidazole was included as reference drug.

CC(=O)OCC1OC([S][Au][PH]2(c3ccccc3)C(c3ccccn3)=CC=C2c2ccccn2)C(OC(C)=O)C(OC(C)=O)C1OC(C)=O [GoPI-sugar, 1-thio-β-D-glucopyranose 2,3,4,6-tetraacetato-S-Au{1-phenyl-2,5-di(2-pyridyl)phosphole}] was tested, and the IC50 (S. mansoni TGR) was 12.5 nM, the “Dead (%) Day 1” value ([1]; 1 μM) was 0% and the “Dead (%) Day 2” value ([1]; 1 μM) was 0%. For the same molecule, the “Dead (%) Day 3” value ([1]; 1 μM) was 0%, the “Dead (%) Day 4” value ([1]; 1 μM) was 0% and the “Dead (%) Day 5” value ([1]; 1 μM) was 0%. For the same molecule, the “Dead (%) Day 1” value ([1]; 5 μM) was 100%, the “Dead (%) Day 1” value ([1]; 10 μM) was 100% and the IC50 (B. pahangi TrxR) was 5.5 nM. For the same molecule, the “% Inhibition of Motility O. ochengi mf Day 5” value (O. ochengi microfilariae) was 100%, the IC50 [2] was 1.45 ± 0.07 µM and the IC50 [3] was 1830 nM. For the same molecule, the IC50 (T. cruzi Tulahuen CL2) was 0.56 ± 0.11 µM.
